Assay results as given in PubChem BioAssay AID1845215 (Molecular Pharmacology Branch, DTP, NCI, 2023).
pIC50: −log10 of the molar value.

Tested on: SW 1271 complex tumor spheroid viability
Test: Anticancer human tumor SW 1271 cell line growth inhibition;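 further: spheroids exposed to agents for seven days before readout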;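 on viability, T/C: percent of DMSO vehicle control luminescence so 100% = vehicle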
Settings: for pIC50: curve of first compound; for viability, T/C: stronger effect = lower value
Outline: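 Complex spheroids of malignant cells with endothelial cells and mesenchymal stem cells; agents alone or combined, from near clinical Cmax (or 10 microM if unknown) down in half-log steps, 0.25% DMSO final.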

[1] = second compound 0.003 µM, first compound 0.0316 µM
[2] = second compound 0.003 µM, first compound 0.1 µM
[3] = second compound 0.003 µM, first compound 0.316 µM
[4] = second compound 0.003 µM, first compound 1 µM
[5] = second compound 0.003 µM, first compound 3.16 µM
[6] = second compound 0.003 µM, first compound 10 µM
[7] = second compound 0.00949 µM, first compound 0.0316 µM
[8] = second compound 0.00949 µM, first compound 0.1 µM
[9] = second compound 0.00949 µM, first compound 0.316 µM
[10] = second compound 0.00949 µM, first compound 1 µM
[11] = second compound 0.00949 µM, first compound 3.16 µM
[12] = second compound 0.00949 µM, first compound 10 µM
[13] = second compound 0.03 µM, first compound 0.0316 µM
[14] = second compound 0.03 µM, first compound 0.1 µM
[15] = second compound 0.03 µM, first compound 0.316 µM
[16] = second compound 0.03 µM, first compound 1 µM
[17] = second compound 0.03 µM, first compound 3.16 µM
[18] = second compound 0.03 µM, first compound 10 µM
[19] = second compound 0.0949 µM, first compound 0.0316 µM
[20] = second compound 0.0949 µM, first compound 0.1 µM
[21] = second compound 0.0949 µM, first compound 0.316 µM
[22] = second compound 0.0949 µM, first compound 1 µM
[23] = second compound 0.0949 µM, first compound 3.16 µM
[24] = second compound 0.0949 µM, first compound 10 µM
[25] = second compound 0.3 µM, first compound 0.0316 µM
[26] = second compound 0.3 µM, first compound 0.1 µM
[27] = second compound 0.3 µM, first compound 0.316 µM
[28] = second compound 0.3 µM, first compound 1 µM
[29] = second compound 0.3 µM, first compound 3.16 µM
[30] = second compound 0.3 µM, first compound 10 µM

Compound `CC(C)n1c(=O)n(C)c2cnc3cc(F)c(-c4ccc(OCCCN5CCCCC5)nc4)cc3c21` + CC[C@@]1(O)C(=O)OCc2c1cc1n(c2=O)Cc2cc3c(CN(C)C)c(O)ccc3nc2-1 has a pIC50 (second compound 0.003 µM) of over 7.50, a pIC50 (second compound 0.00949 µM) of over 7.50 and a pIC50 (second compound 0.03 µM) of over 7.50. For the same compound, the pIC50 (second compound 0.0949 µM) was over 7.50, the pIC50 (second compound 0.3 µM) was over 7.50 and the viability, T/C [1] was 28.2%. The viability, T/C [2] was 26.8%, the viability, T/C [3] was 25% and the viability, T/C [4] was 27.7%. The viability, T/C [5] was 19.3%, the viability, T/C [6] was 7.91% and the viability, T/C [7] was 15.9%. For the same compound, the viability, T/C [8] was 17.9%, the viability, T/C [9] was 14.5% and the viability, T/C [10] was 12.2%. The viability, T/C [11] was 11.3%, the viability, T/C [12] was 5.27% and the viability, T/C [13] was 20.4%. The viability, T/C [14] was 17.7%, the viability, T/C [15] was 16% and the viability, T/C [16] was 15.8%. It also gave a viability, T/C [17] of 8.12%, a viability, T/C [18] of 3.67% and a viability, T/C [19] of 23.9%. For the same compound, the viability, T/C [20] was 24.6%, the viability, T/C [21] was 23.2% and the viability, T/C [22] was 19.8%. For the same compound, the viability, T/C [23] was 7.87%, the viability, T/C [24] was 3.44% and the viability, T/C [25] was 14.6%. The viability, T/C [26] was 13.2%, the viability, T/C [27] was 16.4% and the viability, T/C [28] was 16.1%. It also gave a viability, T/C [29] of 7.25% and a viability, T/C [30] of 4.47%.
For `CC1COCCN1c1cc(-c2ccnn2C)c2ccnc(-c3ccn[nH]3)c2n1` (stereo not given) + CC[C@@]1(O)C(=O)OCc2c1cc1n(c2=O)Cc2cc3c(CN(C)C)c(O)ccc3nc2-1, the pIC50 (second compound 0.003 µM) was over 7.50, the pIC50 (second compound 0.00949 µM) was over 7.50 and the pIC50 (second compound 0.03 µM) was over 7.50. It also gave a pIC50 (second compound 0.0949 µM) of over 7.50, a pIC50 (second compound 0.3 µM) of over 7.50 and a viability, T/C [1] of 26%. For the same compound, the viability, T/C [2] was 11.3%, the viability, T/C [3] was 4.59% and the viability, T/C [4] was 2.3%. It also gave a viability, T/C [5] of 1.84%, a viability, T/C [6] of 1.92% and a viability, T/C [7] of 6.62%. For the same compound, the viability, T/C [8] was 4.56%, the viability, T/C [9] was 3.33% and the viability, T/C [10] was 2.14%. For the same compound, the viability, T/C [11] was 1.49%, the viability, T/C [12] was 1.95% and the viability, T/C [13] was 6.54%. For the same compound, the viability, T/C [14] was 4.67%, the viability, T/C [15] was 3.37% and the viability, T/C [16] was 2.33%. The viability, T/C [17] was 1.73%, the viability, T/C [18] was 1.79% and the viability, T/C [19] was 8.42%. It also gave a viability, T/C [20] of 6.2%, a viability, T/C [21] of 4.79% and a viability, T/C [22] of 2.58%. The viability, T/C [23] was 1.54%, the viability, T/C [24] was 1.64% and the viability, T/C [25] was 5.08%. It also gave a viability, T/C [26] of 3.04%, a viability, T/C [27] of 2.79% and a viability, T/C [28] of 2.96%. The viability, T/C [29] was 1.02% and the viability, T/C [30] was 0.73%.
In the case of `COc1cc(C)[nH]c(=O)c1CN1CCc2c(Cl)cc(C(OC)C3COC3)c(Cl)c2C1=O` (stereo not given) + CC[C@@]1(O)C(=O)OCc2c1cc1n(c2=O)Cc2cc3c(CN(C)C)c(O)ccc3nc2-1, the pIC50 (second compound 0.003 µM) was under 5.00, the pIC50 (second compound 0.00949 µM) was under 5.00 and the pIC50 (second compound 0.03 µM) was over 7.50. For the same compound, the pIC50 (second compound 0.0949 µM) was over 7.50, the pIC50 (second compound 0.3 µM) was over 7.50 and the viability, T/C [1] was 90.4%. For the same compound, the viability, T/C [2] was 94.9%, the viability, T/C [3] was 93.3% and the viability, T/C [4] was 93.3%. For the same compound, the viability, T/C [5] was 85.3%, the viability, T/C [6] was 75.2% and the viability, T/C [7] was 73.6%. For the same compound, the viability, T/C [8] was 70.4%, the viability, T/C [9] was 69.6% and the viability, T/C [10] was 57.3%. The viability, T/C [11] was 64.9%, the viability, T/C [12] was 56.5% and the viability, T/C [13] was 29.6%. The viability, T/C [14] was 28.5%, the viability, T/C [15] was 34.3% and the viability, T/C [16] was 31.1%. For the same compound, the viability, T/C [17] was 32.4%, the viability, T/C [18] was 31% and the viability, T/C [19] was 28.8%. It also gave a viability, T/C [20] of 30.5%, a viability, T/C [21] of 29.5% and a viability, T/C [22] of 32.5%. It also gave a viability, T/C [23] of 33.1%, a viability, T/C [24] of 23.5% and a viability, T/C [25] of 14.2%. For the same compound, the viability, T/C [26] was 16.1%, the viability, T/C [27] was 18.8% and the viability, T/C [28] was 16.7%. For the same compound, the viability, T/C [29] was 13.7% and the viability, T/C [30] was 10.9%.
With `COc1ccc([C@@H](O)c2cc(-c3ncnc4cc(N5CCOCC5)ccc34)c(F)cc2Cl)nn1` + CC[C@@]1(O)C(=O)OCc2c1cc1n(c2=O)Cc2cc3c(CN(C)C)c(O)ccc3nc2-1 the pIC50 (second compound 0.003 µM) was 5.91, the pIC50 (second compound 0.00949 µM) was 6.99 and the pIC50 (second compound 0.03 µM) was over 7.50. It also gave a pIC50 (second compound 0.0949 µM) of over 7.50, a pIC50 (second compound 0.3 µM) of over 7.50 and a viability, T/C [1] of 83.3%. For the same compound, the viability, T/C [2] was 85.1%, the viability, T/C [3] was 75.2% and the viability, T/C [4] was 54.3%. The viability, T/C [5] was 26.9%, the viability, T/C [6] was 6.38% and the viability, T/C [7] was 57.9%. For the same compound, the viability, T/C [8] was 53%, the viability, T/C [9] was 37.9% and the viability, T/C [10] was 29.6%. The viability, T/C [11] was 19.6%, the viability, T/C [12] was 6.43% and the viability, T/C [13] was 31.5%. The viability, T/C [14] was 31.1%, the viability, T/C [15] was 28.8% and the viability, T/C [16] was 28.6%. The viability, T/C [17] was 19.9%, the viability, T/C [18] was 6.27% and the viability, T/C [19] was 27.9%. It also gave a viability, T/C [20] of 27.6%, a viability, T/C [21] of 25% and a viability, T/C [22] of 25.9%. The viability, T/C [23] was 21.7%, the viability, T/C [24] was 3.71% and the viability, T/C [25] was 13%. For the same compound, the viability, T/C [26] was 14.8%, the viability, T/C [27] was 15% and the viability, T/C [28] was 10.2%. It also gave a viability, T/C [29] of 1.72% and a viability, T/C [30] of 0.2%.
For `[2H]c1nc(C)nc([2H])c1-c1cc(NC[C@@H](C)c2cccc3c(C(=O)NC)ccnc23)ncn1` + CC[C@@]1(O)C(=O)OCc2c1cc1n(c2=O)Cc2cc3c(CN(C)C)c(O)ccc3nc2-1, the pIC50 (second compound 0.003 µM) was under 5.00, the pIC50 (second compound 0.00949 µM) was 5.87 and the pIC50 (second compound 0.03 µM) was over 7.50. The pIC50 (second compound 0.0949 µM) was over 7.50, the pIC50 (second compound 0.3 µM) was over 7.50 and the viability, T/C [1] was 94.2%. For the same compound, the viability, T/C [2] was 90.5%, the viability, T/C [3] was 95.4% and the viability, T/C [4] was 94.6%. For the same compound, the viability, T/C [5] was 88.9%, the viability, T/C [6] was 79.9% and the viability, T/C [7] was 58.9%. The viability, T/C [8] was 51.1%, the viability, T/C [9] was 58.7% and the viability, T/C [10] was 48.3%. It also gave a viability, T/C [11] of 47.9%, a viability, T/C [12] of 39.4% and a viability, T/C [13] of 36.5%. For the same compound, the viability, T/C [14] was 35.3%, the viability, T/C [15] was 34.5% and the viability, T/C [16] was 36.6%. For the same compound, the viability, T/C [17] was 34.2%, the viability, T/C [18] was 31.6% and the viability, T/C [19] was 34%. The viability, T/C [20] was 32.6%, the viability, T/C [21] was 30.1% and the viability, T/C [22] was 31.4%. It also gave a viability, T/C [23] of 33.1%, a viability, T/C [24] of 26% and a viability, T/C [25] of 19.9%. The viability, T/C [26] was 17.5%, the viability, T/C [27] was 15.1% and the viability, T/C [28] was 17%. The viability, T/C [29] was 14.2% and the viability, T/C [30] was 8.53%.
